Legend:
Assay type in all cases: cell-based
[1] = target: T1, human TLR8 (Homo sapiens, UniProt Q9NR97); test: TLR8 inhibition reporter assay (HEK-Blue cells, SEAP reporter, R848 stimulation); conditions: HEK-Blue cells overexpressing human TLR8, SEAP reporter, R848 15.9 μM
T1 construct: host or cells: HEK-Blue cells (HEK293-derived reporter line)
T1 sequence (Q9NR97 27-1041): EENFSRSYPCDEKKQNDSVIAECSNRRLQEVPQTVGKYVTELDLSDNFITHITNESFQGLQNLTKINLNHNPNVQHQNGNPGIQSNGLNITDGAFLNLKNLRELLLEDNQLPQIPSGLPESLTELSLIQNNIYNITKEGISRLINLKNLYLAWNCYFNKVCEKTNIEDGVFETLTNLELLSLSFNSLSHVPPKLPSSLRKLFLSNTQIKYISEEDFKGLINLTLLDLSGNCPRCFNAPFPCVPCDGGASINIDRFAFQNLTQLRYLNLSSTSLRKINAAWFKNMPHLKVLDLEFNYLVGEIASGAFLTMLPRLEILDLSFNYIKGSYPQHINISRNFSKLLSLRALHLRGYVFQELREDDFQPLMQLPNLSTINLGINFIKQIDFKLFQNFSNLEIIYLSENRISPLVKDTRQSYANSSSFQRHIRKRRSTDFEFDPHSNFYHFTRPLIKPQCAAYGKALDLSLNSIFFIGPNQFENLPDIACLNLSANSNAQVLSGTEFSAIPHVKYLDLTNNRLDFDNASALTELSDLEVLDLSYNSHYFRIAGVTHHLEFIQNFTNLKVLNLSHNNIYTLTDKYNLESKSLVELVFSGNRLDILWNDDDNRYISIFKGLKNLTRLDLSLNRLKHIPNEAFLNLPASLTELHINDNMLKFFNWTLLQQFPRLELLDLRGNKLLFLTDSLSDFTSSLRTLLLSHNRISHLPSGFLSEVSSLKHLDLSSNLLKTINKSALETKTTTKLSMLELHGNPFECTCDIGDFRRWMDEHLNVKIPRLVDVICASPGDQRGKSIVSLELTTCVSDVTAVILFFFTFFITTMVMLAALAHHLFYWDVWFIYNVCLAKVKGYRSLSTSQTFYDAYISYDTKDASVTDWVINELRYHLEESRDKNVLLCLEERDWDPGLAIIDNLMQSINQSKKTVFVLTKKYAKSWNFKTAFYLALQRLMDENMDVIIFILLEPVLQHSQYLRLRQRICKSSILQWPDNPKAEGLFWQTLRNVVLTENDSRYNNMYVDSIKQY
Procedure, shortened: (§1)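 Percent inhibition of agonist-induced SEAP secretion in HEK-Blue cells after 22 h at 37 °C. Stimuli: 7.5 μM gardiquimod, 15.9 μM R848, 5 nM ODN2006 for TLR7, TLR8 and TLR9, added after 30 min compound exposure over a 0.05 nM–50 μM range.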

[2] = target: T2, human TLR9 (Homo sapiens, UniProt Q9NR96); test: TLR9 inhibition reporter assay (HEK-Blue cells, SEAP reporter, ODN2006 stimulation); conditions: HEK-Blue cells overexpressing human TLR9, SEAP reporter, ODN2006 5 nM
T2 construct: host or cells: HEK-Blue cells (HEK293-derived reporter line)
T2 sequence (Q9NR96 26-1032): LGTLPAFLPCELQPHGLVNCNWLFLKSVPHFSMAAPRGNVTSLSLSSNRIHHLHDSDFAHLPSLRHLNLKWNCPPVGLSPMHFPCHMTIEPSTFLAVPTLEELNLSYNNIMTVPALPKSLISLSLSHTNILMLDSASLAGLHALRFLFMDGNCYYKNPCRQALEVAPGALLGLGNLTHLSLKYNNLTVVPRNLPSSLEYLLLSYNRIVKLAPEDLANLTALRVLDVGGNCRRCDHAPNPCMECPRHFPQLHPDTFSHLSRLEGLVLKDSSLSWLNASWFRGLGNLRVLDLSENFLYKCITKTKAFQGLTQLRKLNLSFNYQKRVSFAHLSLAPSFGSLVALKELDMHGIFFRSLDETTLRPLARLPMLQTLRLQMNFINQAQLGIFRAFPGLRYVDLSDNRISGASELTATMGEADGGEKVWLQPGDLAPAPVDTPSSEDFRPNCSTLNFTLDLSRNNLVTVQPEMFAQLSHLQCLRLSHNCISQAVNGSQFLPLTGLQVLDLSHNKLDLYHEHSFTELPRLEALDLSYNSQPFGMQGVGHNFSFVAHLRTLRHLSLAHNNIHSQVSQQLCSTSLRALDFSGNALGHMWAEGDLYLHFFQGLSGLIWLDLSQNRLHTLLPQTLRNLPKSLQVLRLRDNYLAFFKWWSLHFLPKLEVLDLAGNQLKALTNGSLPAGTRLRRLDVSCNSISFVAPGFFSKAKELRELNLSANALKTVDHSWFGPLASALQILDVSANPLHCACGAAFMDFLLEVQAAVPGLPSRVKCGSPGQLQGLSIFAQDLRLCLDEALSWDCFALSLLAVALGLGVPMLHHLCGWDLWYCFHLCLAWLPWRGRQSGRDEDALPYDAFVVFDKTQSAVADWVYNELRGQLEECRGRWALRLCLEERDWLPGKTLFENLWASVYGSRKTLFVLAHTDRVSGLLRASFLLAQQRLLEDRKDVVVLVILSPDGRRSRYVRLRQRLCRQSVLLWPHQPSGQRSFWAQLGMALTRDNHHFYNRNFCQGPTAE
Procedure, shortened: as §1

[3] = target: T3, human TLR7 (Homo sapiens, UniProt Q9NYK1); test: TLR7 inhibition reporter assay (HEK-Blue cells, SEAP reporter, gardiquimod stimulation); conditions: HEK-Blue cells overexpressing human TLR7, SEAP reporter, gardiquimod 7.5 μM
T3 construct: host or cells: HEK-Blue cells (HEK293-derived reporter line)
T3 sequence (Q9NYK1 27-1049): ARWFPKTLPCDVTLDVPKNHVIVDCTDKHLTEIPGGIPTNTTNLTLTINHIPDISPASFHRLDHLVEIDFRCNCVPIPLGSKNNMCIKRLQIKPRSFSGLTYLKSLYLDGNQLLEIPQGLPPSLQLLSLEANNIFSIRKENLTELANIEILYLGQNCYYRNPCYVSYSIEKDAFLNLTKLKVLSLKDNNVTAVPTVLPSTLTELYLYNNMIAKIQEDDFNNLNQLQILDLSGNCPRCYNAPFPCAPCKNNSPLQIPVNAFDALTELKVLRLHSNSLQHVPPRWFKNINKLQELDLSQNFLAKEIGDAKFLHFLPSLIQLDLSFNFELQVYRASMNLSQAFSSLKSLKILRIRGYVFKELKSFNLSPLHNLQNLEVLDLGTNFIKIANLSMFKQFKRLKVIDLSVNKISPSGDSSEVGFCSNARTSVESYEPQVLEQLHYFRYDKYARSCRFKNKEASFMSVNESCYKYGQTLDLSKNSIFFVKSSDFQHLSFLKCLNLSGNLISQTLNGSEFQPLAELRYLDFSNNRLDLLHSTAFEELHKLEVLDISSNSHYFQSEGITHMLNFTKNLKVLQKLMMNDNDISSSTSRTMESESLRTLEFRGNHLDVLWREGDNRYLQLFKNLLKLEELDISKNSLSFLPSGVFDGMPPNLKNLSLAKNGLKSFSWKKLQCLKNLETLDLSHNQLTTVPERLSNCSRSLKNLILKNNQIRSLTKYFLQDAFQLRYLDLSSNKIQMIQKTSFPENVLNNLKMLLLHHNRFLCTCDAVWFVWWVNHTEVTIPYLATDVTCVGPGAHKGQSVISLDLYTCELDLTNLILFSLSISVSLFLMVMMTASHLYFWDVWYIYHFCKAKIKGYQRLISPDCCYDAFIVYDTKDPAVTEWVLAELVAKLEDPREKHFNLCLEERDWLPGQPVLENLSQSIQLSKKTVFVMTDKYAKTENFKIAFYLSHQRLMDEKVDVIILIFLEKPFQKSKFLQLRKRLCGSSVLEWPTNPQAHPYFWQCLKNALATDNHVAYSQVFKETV
Procedure, shortened: as §1

Compound | IC50 [1] | IC50 [2] | IC50 [3]
CC(C)c1c(-c2ccnc3[nH]ncc23)[nH]c2ccc(C3CCN(C(=O)CCN4CCCCC4)CC3)cc12 [Example 641, 1-(4-(3-isopropyl-2-(1H-pyrazolo[3,4-b]pyridin-4-yl)-1H-indol-5-yl)piperidin-1-yl)-3-(piperidin-1-yl)propan-1-one] | < 0.1 µM | 1 to 50 µM | < 0.1 µM
Cc1cc(-c2[nH]c3ccc(C4CCN(C(=O)CN5CCC(F)(F)C5)CC4)cc3c2C(C)C)cn2nnnc12 [Example 478, 2-(3,3-difluoropyrrolidin-1-yl)-1-(4-(3-isopropyl-2-(8-methyltetrazolo[1,5-a]pyridin-6-yl)-1H-indol-5-yl)piperidin-1-yl)ethan-1-one] | 0.1 to 1 µM | > 50 µM | < 0.1 µM
CCc1c(-c2ccnc3[nH]ncc23)[nH]c2ccc(C3CCN(C(C)C)CC3)cc12 [Example 957, 4-(3-ethyl-5-(1-isopropylpiperidin-4-yl)-1H-indol-2-yl)-1H-pyrazolo[3,4-b]pyridine] | < 0.1 µM | 1 to 50 µM | 0.1 to 1 µM
CNC(=O)CN1CCC(c2ccc3[nH]c(-c4ccn5cnnc5c4)c(C(C)C)c3c2)CC1 [Example 306, 2-(4-(2-([1,2,4]triazolo[4,3-a]pyridin-7-yl)-3-isopropyl-1H-indol-5-yl)piperidin-1-yl)-N-methylacetamide] | 0.1 to 1 µM | 1 to 50 µM | 0.1 to 1 µM
CC(C)c1c(-c2ccnc3[nH]ncc23)[nH]c2ccc(C3CCN(C(=O)CN4CC[C@@H](N(C)C)C4)CC3)cc12 [Example 582, (R)-2-(3-(dimethylamino)pyrrolidin-1-yl)-1-(4-(3-isopropyl-2-(1H-pyrazolo[3,4-b]pyridin-4-yl)-1H-indol-5-yl)piperidin-1-yl)ethan-1-one] | < 0.1 µM | 0.1 to 1 µM | < 0.1 µM
CC(C)c1c(-c2ccnc3[nH]ncc23)[nH]c2ccc(C3CCN(C(=O)CS(C)(=O)=O)CC3)cc12 [Example 614, 1-(4-(3-isopropyl-2-(1H-pyrazolo[3,4-b]pyridin-4-yl)-1H-indol-5-yl)piperidin-1-yl)-2-(methylsulfonyl)ethan-1-one] | < 0.1 µM | > 50 µM | < 0.1 µM
Cc1cc2ncnn2nc1-c1[nH]c2ccc(C3CCN(C(=O)CN(C)C)CC3)cc2c1C(C)C [Example 455, 2-(dimethylamino)-1-(4-(3-isopropyl-2-(7-methyl-[1,2,4]triazolo[1,5-b]pyridazin-6-yl)-1H-indol-5-yl)piperidin-1-yl)ethan-1-one] | < 0.1 µM | 1 to 50 µM | < 0.1 µM
Cc1cn2cc(-c3[nH]c4ccc(C5CCN(Cc6cnn(C)c6)CC5)cc4c3C(C)C)cc(C(F)(F)F)c2n1 [Example 934, 6-(3-isopropyl-5-(1-((1-methyl-1H-pyrazol-4-yl)methyl)piperidin-4-yl)-1H-indol-2-yl)-2-methyl-8-(trifluoromethyl)imidazo[1,2-a]pyridine] | 0.1 to 1 µM | 1 to 50 µM | < 0.1 µM
CC(C)c1c(-c2ccnc3[nH]ncc23)[nH]c2ccc(C3CCN(Cc4ccc(N5CCCC5)cc4)CC3)cc12 [Example 905, 4-(3-isopropyl-5-(1-(4-(pyrrolidin-1-yl)benzyl)piperidin-4-yl)-1H-indol-2-yl)-1H-5 pyrazolo[3,4-b]pyridine] | < 0.1 µM | 1 to 50 µM | 0.1 to 1 µM
CNCCN1CCC(c2ccc3[nH]c(-c4ccc5nccn5c4)c(C(C)C)c3c2)CC1 [Example 680, 2-(4-(2-(imidazo[1,2-a]pyridin-6-yl)-3-isopropyl-1H-indol-5-yl)piperidin-1-yl)-N-methylethan-1-amine] | < 0.1 µM | 0.1 to 1 µM | < 0.1 µM
CC(C)c1c(-c2cc(N)c3nccn3c2)[nH]c2ccc(C3CCNCC3)cc12 [Example 117, 6-(3-isopropyl-5-(piperidin-4-yl)-1H-indol-2-yl)imidazo[1,2-a]pyridin-8-amine] | < 0.1 µM | 0.1 to 1 µM | < 0.1 µM
CC(C)c1c(-c2ccnc3[nH]ncc23)[nH]c2cc(C(F)(F)F)c(C3CCN(CC4CCNC4)CC3)cc12 (stereo not drawn) [Example 851, 4-(3-isopropyl-5-(1-(pyrrolidin-3-ylmethyl)piperidin-4-yl)-6-(trifluoromethyl)-1H-indol-2-yl)-1H-pyrazolo[3,4-b]pyridine] | 0.1 to 1 µM | 0.1 to 1 µM | < 0.1 µM
CCc1c(-c2cccc3c2cnn3C)[nH]c2ccc(C3CCN(C(=O)CN[C@H]4CC[C@@H](N)CC4)CC3)cc12 [Example 519, 2-(((1s,4s)-4-aminocyclohexyl)amino)-1-(4-(3-ethyl-2-(1-methyl-1H-indazol-4-yl)-1H-indol-5-yl)piperidin-1-yl)ethan-1-one] | > 50 µM | 1 to 50 µM | > 50 µM

Reference: US11739098B2 (BRISTOL-MYERS SQUIBB COMPANY, priority 2017, dated 2023)
